Legend:
[1] = test system: CAMA-1 (Breast Carcinoma); test: combination Emax (second highest fraction inhibited in the dose matrix, 72 h); higher = more inhibition; extreme values may be limits of the assay
Summary of the method: (§1)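 Cell lines grown in DMEM/F12 or RPMI with 10% FBS were plated in 1536-well plates and held 24 hours at 37°C, 5% CO2 before 72 hours of exposure to two-drug dose matrices, with DMSO typically at 0.2%. CellTiter-Glo 2.0 luminescence gave viability, which was converted to inhibition. Vehicle wells were set to 0 and blank wells to 1. Combination Emax is the second-highest inhibition in the matrix, and Bliss excess is the observed combination effect minus the expected EA + EB − EA·EB, where EA and EB are the single-agent effects.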

[2] = test system: SR (Other Blood Carcinomas); test: as above
Summary of the method: as §1

[3] = test system: NCI-H1792 (Lung Adenocarcinoma); test: as above
Summary of the method: as §1

WM-115 (Melanoma) [4] = test: as above
Summary of the method: as §1

[5] = test system: BL-41 (Burkitt's Lymphoma); test: as above
Summary of the method: as §1

ES8 (Ewing's Sarcoma) [6] = test: as above
Summary of the method: as §1

[7] = test system: MKN28 (Gastric Carcinoma); test: as above
Summary of the method: as §1

[8] = test system: GR-ST (B-Lymphoblastic Leukemia); test: as above
Summary of the method: as §1

ES1 (Ewing's Sarcoma) [9] = test: as above
Summary of the method: as §1

[10] = test system: SW1417 (Colorectal Carcinoma); test: as above
Summary of the method: as §1

[11] = test system: K-562 (Chronic Myelogenous Leukemia); test: as above
Summary of the method: as §1

WIL2-NS (Non-Cancerous) [12] = test: as above
Summary of the method: as §1

[13] = test system: SW837 (Colorectal Carcinoma); test: as above
Summary of the method: as §1

[14] = test system: BFTC-905 (Bladder Carcinoma); test: as above
Summary of the method: as §1

[15] = test system: L-540 (Hodgkin's Lymphoma); test: as above
Summary of the method: as §1

[16] = test system: DND-41 (T-Lymphoblastic Leukemia); test: as above
Summary of the method: as §1

NCI-H2818 (Mesothelioma) [17] = test: as above
Summary of the method: as §1

[18] = test system: CAMA-1 (Breast Carcinoma); test: Bliss excess, mean over the matrix (fraction); higher = more synergy
Summary of the method: as §1

[19] = test system: SR (Other Blood Carcinomas); test: as above
Summary of the method: as §1

[20] = test system: NCI-H1792 (Lung Adenocarcinoma); test: as above
Summary of the method: as §1

WM-115 (Melanoma) [21] = test: as above
Summary of the method: as §1

[22] = test system: BL-41 (Burkitt's Lymphoma); test: as above
Summary of the method: as §1

ES8 (Ewing's Sarcoma) [23] = test: as above
Summary of the method: as §1

[24] = test system: MKN28 (Gastric Carcinoma); test: as above
Summary of the method: as §1

[25] = test system: GR-ST (B-Lymphoblastic Leukemia); test: as above
Summary of the method: as §1

ES1 (Ewing's Sarcoma) [26] = test: as above
Summary of the method: as §1

[27] = test system: SW1417 (Colorectal Carcinoma); test: as above
Summary of the method: as §1

[28] = test system: K-562 (Chronic Myelogenous Leukemia); test: as above
Summary of the method: as §1

WIL2-NS (Non-Cancerous) [29] = test: as above
Summary of the method: as §1

[30] = test system: SW837 (Colorectal Carcinoma); test: as above
Summary of the method: as §1

[31] = test system: BFTC-905 (Bladder Carcinoma); test: as above
Summary of the method: as §1

[32] = test system: L-540 (Hodgkin's Lymphoma); test: as above
Summary of the method: as §1

[33] = test system: DND-41 (T-Lymphoblastic Leukemia); test: as above
Summary of the method: as §1

NCI-H2818 (Mesothelioma) [34] = test: as above
Summary of the method: as §1
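Throughout, for Bliss excess, mean over the matrix: after 72 h of two-drug dosing.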

With `CS(=O)(=O)CCNCc1ccc(-c2ccc3ncnc(Nc4ccc(OCc5cccc(F)c5)c(Cl)c4)c3c2)o1` [Lapatinib] + Cn1cnc2c(F)c(Nc3ccc(Br)cc3Cl)c(C(=O)NOCCO)cc21 [Selumetinib] (first compound max 10 µM, 7x7, partner max 10 µM) the “combination Emax” value [1] was 0.187, the “combination Emax” value [2] was 0.707 and the “combination Emax” value [3] was 0.527. For the same compound, the “combination Emax” value (WM-115 (Melanoma) [4]) was 0.531, the “combination Emax” value [5] was 0.907 and the “combination Emax” value (ES8 (Ewing's Sarcoma) [6]) was 0.555. The “combination Emax” value [7] was 0.545, the “combination Emax” value [8] was 0.969 and the “combination Emax” value (ES1 (Ewing's Sarcoma) [9]) was 0.452. The “combination Emax” value [10] was 0.698, the “combination Emax” value [11] was 0.564 and the “combination Emax” value (WIL2-NS (Non-Cancerous) [12]) was 0.321. For the same compound, the “combination Emax” value [13] was 0.732, the “combination Emax” value [14] was 0.804 and the “combination Emax” value [15] was 0.511. The “combination Emax” value [16] was 0.871, the “combination Emax” value (NCI-H2818 (Mesothelioma) [17]) was 0.28 and the Bliss excess [18] was -0.0009. It also gave a Bliss excess [19] of 0.0398, a Bliss excess [20] of 0.0012 and a Bliss excess (WM-115 (Melanoma) [21]) of 0.0205. It also gave a Bliss excess [22] of -0.0346, a Bliss excess (ES8 (Ewing's Sarcoma) [23]) of 0.036 and a Bliss excess [24] of 0.0057. The Bliss excess [25] was -0.03, the Bliss excess (ES1 (Ewing's Sarcoma) [26]) was 0.0071 and the Bliss excess [27] was 0.0847. For the same compound, the Bliss excess [28] was -0.0324, the Bliss excess (WIL2-NS (Non-Cancerous) [29]) was 0.0098 and the Bliss excess [30] was 0.0194. The Bliss excess [31] was 0.0619, the Bliss excess [32] was -0.0147 and the Bliss excess [33] was 0.0178. For the same compound, the Bliss excess (NCI-H2818 (Mesothelioma) [34]) was -0.0295.
With `O=C(c1cc(Cc2n[nH]c(=O)c3ccccc23)ccc1F)N1CCN(C(=O)C2CC2)CC1` [Olaparib] + CC1(C)CCC(CN2CCN(c3ccc(C(=O)NS(=O)(=O)c4ccc(NCC5CCOCC5)c([N+](=O)[O-])c4)c(Oc4cnc5[nH]ccc5c4)c3)CC2)=C(c2ccc(Cl)cc2)C1 [Venetoclax] (first compound max 10 µM, 7x7, partner max 1 µM) the “combination Emax” value [1] was 0.211, the “combination Emax” value [2] was 0.567 and the “combination Emax” value [3] was 0.109. The “combination Emax” value (WM-115 (Melanoma) [4]) was 0.241, the “combination Emax” value [5] was 0.318 and the “combination Emax” value (ES8 (Ewing's Sarcoma) [6]) was 0.964. For the same compound, the “combination Emax” value [7] was 0.105, the “combination Emax” value [8] was 0.526 and the “combination Emax” value (ES1 (Ewing's Sarcoma) [9]) was 0.841. The “combination Emax” value [10] was 0.124, the “combination Emax” value [11] was 0.172 and the “combination Emax” value (WIL2-NS (Non-Cancerous) [12]) was 0.46. For the same compound, the “combination Emax” value [13] was 0.112, the “combination Emax” value [14] was 0.193 and the “combination Emax” value [15] was 0.558. For the same compound, the “combination Emax” value [16] was 0.29, the “combination Emax” value (NCI-H2818 (Mesothelioma) [17]) was 0.158 and the Bliss excess [18] was -0.0106. It also gave a Bliss excess [19] of 0.0961, a Bliss excess [20] of -0.0302 and a Bliss excess (WM-115 (Melanoma) [21]) of -0.052. For the same compound, the Bliss excess [22] was 0.0183, the Bliss excess (ES8 (Ewing's Sarcoma) [23]) was -0.0224 and the Bliss excess [24] was -0.0514. For the same compound, the Bliss excess [25] was -0.0349, the Bliss excess (ES1 (Ewing's Sarcoma) [26]) was 0.0271 and the Bliss excess [27] was -0.0223. For the same compound, the Bliss excess [28] was -0.0133, the Bliss excess (WIL2-NS (Non-Cancerous) [29]) was 0.0261 and the Bliss excess [30] was -0.0548. The Bliss excess [31] was -0.0334, the Bliss excess [32] was 0.0188 and the Bliss excess [33] was 0.0243. It also gave a Bliss excess (NCI-H2818 (Mesothelioma) [34]) of -0.0238.
With `O=C(c1cc(Cc2n[nH]c(=O)c3ccccc23)ccc1F)N1CCN(C(=O)C2CC2)CC1` [Olaparib] + CN(CC[C@H](CSC1=CC=CC=C1)NC2=C(C=C(C=C2)S(=O)(=O)NC(=O)C3=CC=C(C=C3)N4CCC(CC4)[C@H](C5=CC=CC=C5C6=CC=C(C=C6)Cl)O)S(=O)(=O)C(F)(F)F)CCO [AZD4320] (first compound max 10 µM, 7x7, partner max 1 µM) the “combination Emax” value [1] was 0.278, the “combination Emax” value [2] was 0.709 and the “combination Emax” value [3] was 0.154. The “combination Emax” value (WM-115 (Melanoma) [4]) was 0.37, the “combination Emax” value [5] was 0.417 and the “combination Emax” value (ES8 (Ewing's Sarcoma) [6]) was 0.982. For the same compound, the “combination Emax” value [7] was 0.147, the “combination Emax” value [8] was 0.462 and the “combination Emax” value (ES1 (Ewing's Sarcoma) [9]) was 0.918. The “combination Emax” value [10] was 0.651, the “combination Emax” value [11] was 0.253 and the “combination Emax” value (WIL2-NS (Non-Cancerous) [12]) was 0.509. For the same compound, the “combination Emax” value [13] was 0.197, the “combination Emax” value [14] was 0.346 and the “combination Emax” value [15] was 0.618. The “combination Emax” value [16] was 1, the “combination Emax” value (NCI-H2818 (Mesothelioma) [17]) was 0.186 and the Bliss excess [18] was -0.0317. For the same compound, the Bliss excess [19] was 0.146, the Bliss excess [20] was -0.0399 and the Bliss excess (WM-115 (Melanoma) [21]) was -0.0631. The Bliss excess [22] was 0.0193, the Bliss excess (ES8 (Ewing's Sarcoma) [23]) was 0.0463 and the Bliss excess [24] was -0.0269. For the same compound, the Bliss excess [25] was 0.0012, the Bliss excess (ES1 (Ewing's Sarcoma) [26]) was 0.0333 and the Bliss excess [27] was -0.0183. The Bliss excess [28] was -0.0155, the Bliss excess (WIL2-NS (Non-Cancerous) [29]) was 0.0107 and the Bliss excess [30] was -0.053. The Bliss excess [31] was -0.0089, the Bliss excess [32] was -0.0017 and the Bliss excess [33] was -0.0067. The Bliss excess (NCI-H2818 (Mesothelioma) [34]) was -0.0504.
`O=C(c1cc(Cc2n[nH]c(=O)c3ccccc23)ccc1F)N1CCN(C(=O)C2CC2)CC1` [Olaparib] + COc1nnc2ccc(N3CCC(c4ccc(OCCN5CCN(C)C(=O)[C@H]5C)cc4)CC3)nn12 [AZD5153] (first compound max 10 µM, 7x7, partner max 1 µM) was tested, and the “combination Emax” value [1] was 0.484, the “combination Emax” value [2] was 0.626 and the “combination Emax” value [3] was 0.527. The “combination Emax” value (WM-115 (Melanoma) [4]) was 0.295, the “combination Emax” value [5] was 0.648 and the “combination Emax” value (ES8 (Ewing's Sarcoma) [6]) was 0.966. The “combination Emax” value [7] was 0.362, the “combination Emax” value [8] was 0.776 and the “combination Emax” value (ES1 (Ewing's Sarcoma) [9]) was 0.882. The “combination Emax” value [10] was 0.448, the “combination Emax” value [11] was 0.412 and the “combination Emax” value (WIL2-NS (Non-Cancerous) [12]) was 0.818. For the same compound, the “combination Emax” value [13] was 0.484, the “combination Emax” value [14] was 0.6 and the “combination Emax” value [15] was 0.619. The “combination Emax” value [16] was 0.69, the “combination Emax” value (NCI-H2818 (Mesothelioma) [17]) was 0.325 and the Bliss excess [18] was -0.0417. It also gave a Bliss excess [19] of 0.0315, a Bliss excess [20] of -0.0554 and a Bliss excess (WM-115 (Melanoma) [21]) of -0.135. For the same compound, the Bliss excess [22] was -0.0634, the Bliss excess (ES8 (Ewing's Sarcoma) [23]) was 0.0168 and the Bliss excess [24] was -0.056. For the same compound, the Bliss excess [25] was -0.0519, the Bliss excess (ES1 (Ewing's Sarcoma) [26]) was -0.0392 and the Bliss excess [27] was -0.0096. The Bliss excess [28] was -0.0063, the Bliss excess (WIL2-NS (Non-Cancerous) [29]) was -0.0128 and the Bliss excess [30] was -0.0656. The Bliss excess [31] was -0.0614, the Bliss excess [32] was -0.0841 and the Bliss excess [33] was 0.0275. For the same compound, the Bliss excess (NCI-H2818 (Mesothelioma) [34]) was -0.0205.

Reference: the supplement of paper PMC11061612
